The values below come from ChEMBL document CHEMBL1127077, “Trisubstituted pyridine leukotriene B4 receptor antagonists: synthesis and structure-activity relationships” (J Med Chem, 1993).

Test [1] deals with Leukotriene B4 receptor 1 (Homo sapiens, UniProt Q15722). Put plainly: Binding affinity of [3H]LTB4 to receptors on intact human polymorphonuclear leukocytes.
The next test deals with U-937. Put plainly: Antagonistic activity to inhibit the calcium mobilization response in human U-937 cells. It counts as functional, cell-based. On the technique in general: A change in cytosolic calcium serves as a functional read-out for many receptors and channels.

Chain of Leukotriene B4 receptor 1 (Q15722 whole entry): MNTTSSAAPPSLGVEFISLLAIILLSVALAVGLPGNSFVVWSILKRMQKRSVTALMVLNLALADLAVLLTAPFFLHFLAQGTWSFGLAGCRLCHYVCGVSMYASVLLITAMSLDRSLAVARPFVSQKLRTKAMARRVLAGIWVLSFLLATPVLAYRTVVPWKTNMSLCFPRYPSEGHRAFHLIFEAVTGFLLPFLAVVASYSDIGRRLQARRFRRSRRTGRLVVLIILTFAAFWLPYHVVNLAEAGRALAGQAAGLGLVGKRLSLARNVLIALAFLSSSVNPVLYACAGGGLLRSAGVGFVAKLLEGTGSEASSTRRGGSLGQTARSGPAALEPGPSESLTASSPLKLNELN

Take `CCCCCCCCCCOc1ccc(CC(O)c2cccc(C(=O)O)c2)nc1CCC(=O)O` (configuration not stated): in test [1], the affinity, expressed as Ki, was 429 nM. In the test with U-937, the concentration for half-maximal inhibition (IC50) – broadly, the concentration that gives 50% inhibition – worked out at 3400 nM. Consider `COc1ccc(CCCCCCCCOc2ccc(CSc3ccccc3)nc2/C=C/C(=O)O)cc1`, for which, in test [1], the Ki – broadly, a measure of affinity in units of concentration, obtained from inhibition or displacement – is 74 nM. The half-inhibitory concentration (IC50) in the test on U-937 amounted to 110 nM. With `Nc1cccc(SCc2ccc(OCCCCCCCCc3ccc(C(F)(F)F)cc3)c(/C=C/C(=O)O)n2)c1`, in test [1], the affinity, expressed as Ki, was 43 nM. Besides, the half-inhibitory concentration (IC50) with U-937 came out at 78 nM. The corresponding values for `COc1ccc(CCCCCCCCOc2ccc(CSc3cccc(N(C)C)c3)nc2/C=C/C(=O)O)cc1` are 789 nM and 460 nM. The corresponding values for `CCCCCCCCCCCCOc1ccc(C[S+]([O-])c2ccc(C(=O)O)cc2)nc1/C=C/C(=O)O` (configuration not stated) are 252 nM and 1300 nM. Regarding `Nc1cccc(SCc2ccc(OCCCCCCCCc3ccccc3)c(/C=C/C(=O)O)n2)c1`, the affinity in test [1] corresponds to a Ki of 36 nM. Also, the IC50 in the test on U-937 turned out to be 60 nM.

For the molecule `COc1ccc(CCCCCCCCOc2ccc(C[S+]([O-])c3cccc(N(C)C)c3)nc2/C=C/C(=O)O)cc1` (configuration not stated), the Ki in test [1] worked out at 245 nM. Further, the IC50 with U-937 was 820 nM. For `COc1ccc(CCCCCCCCOc2ccc(CSc3cccc(NC(=O)C(=O)O)c3)nc2/C=C/C(=O)O)cc1` the same measures were 72 nM and 480 nM. For the molecule `CCCCCCCCCCOc1ccc(CC(O)c2cccc(C(=O)O)c2)nc1/C=C/C(=O)O` (configuration not stated), the IC50 with U-937 is 3300 nM. Take `Nc1cccc([S+]([O-])Cc2ccc(OCCCCCCCCc3ccc(C(F)(F)F)cc3)c(/C=C/C(=O)O)n2)c1` (configuration not stated): the Ki in test [1] was determined as 14 nM. Also, the IC50 with U-937 amounted to 54 nM. For `COc1ccc(CCCCCCCCOc2ccc(C[S+]([O-])c3ccccc3)nc2/C=C/C(=O)O)cc1` (configuration not stated) the same measures were 37 nM and 280 nM. For `COc1ccc(CCCCCCCCOc2ccc(C[S+]([O-])c3cccc(C(=O)O)c3)nc2/C=C/C(=O)O)cc1` (configuration not stated) the same measures were 151 nM and 1100 nM. The corresponding values for `CCCCCCCCCCCCOc1ccc(C[S+]([O-])c2ccccc2C(=O)O)nc1/C=C/C(=O)O` (configuration not stated) are 478 nM and 1500 nM. `COc1ccc(CCCCCCCCOc2ccc(C[S+]([O-])c3cccc(OC)c3)nc2/C=C/C(=O)O)cc1` (configuration not stated) returned a Ki in test [1] of 232 nM. Moreover, the IC50 with U-937 amounted to 300 nM.

On to `CCCCCCCCCCCCOc1ccc(COc2cccc(C(=O)O)c2)nc1/C=C/C(=O)O`, for which the Ki in test [1] amounted to 1130 nM. Further, the IC50 in the test on U-937 was 580 nM. The corresponding values for `CCCCCCCCCCCCOc1ccc(CS(=O)(=O)c2cccc(C(=O)O)c2)nc1/C=C/C(=O)O` are 148 nM and 1060 nM. The corresponding values for `CCCCCCCCCCCCOc1ccc(COc2cccc(C(=O)O)c2)[n+]([O-])c1/C=C/C(=O)O` are 338 nM and 1010 nM. The corresponding values for `COc1ccc(CCCCCCCCOc2ccc(CS(=O)(=O)c3cccc(N)c3)nc2/C=C/C(=O)O)cc1` are 36 nM and 150 nM. `CCCCCCCCC(O)/C=C/c1cccc(CC(O)c2cccc(C(=O)O)c2)n1` (configuration not stated): the inhibition constant (Ki) in test [1] stood at 1 nM. `COc1ccc(CCCCCCOc2ccc(CC(O)c3cccc(C(=O)O)c3)nc2/C=C/C(=O)O)cc1` (configuration not stated): the affinity in test [1] corresponds to a Ki of 165 nM. The IC50 in the test with U-937 was 4000 nM.

The molecule `COc1ccc(CCCCCCCCOc2ccc(CSc3cccc(OC)c3)nc2/C=C/C(=O)O)cc1` showed a Ki in test [1] of 192 nM. For the same molecule, in the test on U-937, the IC50 came out at 290 nM. The corresponding values for `COc1ccc(CCCCCCCCOc2ccc(CSc3cccc(NS(=O)(=O)c4ccccc4)c3)nc2/C=C/C(=O)O)cc1` are 609 nM and 240 nM. The corresponding values for `COc1ccc(CCCCCCCCOc2ccc(C[S+]([O-])c3cccc(CS(=O)(=O)C(F)(F)F)c3)nc2/C=C/C(=O)O)cc1` (configuration not stated) are 225 nM and 550 nM. With `CCCCCCCCCCCCOc1ccc(C[S+]([O-])c2cccc(C(=O)O)c2)nc1/C=C/C(=O)O` (configuration not stated), the Ki in test [1] was found to be 129 nM. The IC50 in the test on U-937 came to 930 nM. The corresponding values for `COc1ccc(CCCCCCCCOc2ccc(CSc3cccc(C(=O)O)c3)nc2/C=C/C(=O)O)cc1` are 80 nM and 390 nM. The corresponding values for `COc1ccc(CCCCCCCCOc2ccc(COc3cccc(C(=O)O)c3)[n+]([O-])c2/C=C/C(=O)O)cc1` are 150 nM and 890 nM. The corresponding values for `COc1ccc(CCCCCCCCOc2ccc(CSc3cccc(N)c3)nc2/C=C/C(=O)O)cc1` are 34 nM and 54 nM. `COc1ccc(CCCCCCCCOc2ccc(C[S+]([O-])c3cccc(NS(=O)(=O)c4ccccc4)c3)nc2/C=C/C(=O)O)cc1` (configuration not stated) returned a Ki in test [1] of 147 nM. The IC50 with U-937 came to 150 nM. For `COc1ccc(CCCCCCCCOc2ccc(CSc3cccc(NS(=O)(=O)C(F)(F)F)c3)nc2/C=C/C(=O)O)cc1` the same measures were 284 nM and 340 nM. In test [1], `COc1ccc(CCCCCCCCOc2ccc(C[S+]([O-])c3cccc(N)c3)nc2/C=C/C(=O)O)cc1` (configuration not stated) registered a Ki of 4.7 nM. In addition, the IC50 with U-937 amounted to 74 nM. The corresponding values for `Nc1cccc([S+]([O-])Cc2ccc(OCCCCCCCCc3ccccc3)c(/C=C/C(=O)O)n2)c1` (configuration not stated) are 11 nM and 160 nM.

`Nc1cccc([S+]([O-])Cc2ccc(OCCCCCCCCc3ccc(F)cc3)c(/C=C/C(=O)O)n2)c1` (configuration not stated) showed a Ki in test [1] of 12 nM. Moreover, in the test on U-937, the IC50 amounted to 110 nM.
